The assay addresses T1, full length active recombinant SYK enzyme (Homo sapiens, UniProt P43405).
T1 construct: full length active recombinant SYK enzyme (Millipore, Calif.); purchased Millipore
Description: Inhibition of Syk tyrosine phosphorylation activity (LANCE TR-FRET kinase assay). The conditions noted are these: 1 nM active SYK enzyme, 550 nM SYK-substrate, 100 μM ATP, 1 hour at room temperature. Format: biochemical. For orientation: Time-resolved FRET reads energy transfer from a long-lived donor to a nearby acceptor.
A word on the IC50: it is the concentration at which inhibition is half-maximal. As to `CC[C@@H](Nc1nnc(C(N)=O)c(Nc2cc(C)ns2)n1)C(N)=O` [Example 140, (R)-3-((1-amino-1-oxobutan-2-yl)amino)-5-((3-methylisothiazol-5-yl)amino)-1,2,4-triazine-6-carboxamide], the 50% inhibitory concentration (IC50) fell in the range of 10 to 100 nM.

Consider `CC[C@@H](Nc1nnc(C(N)=O)c(Nc2ccc3c(c2)CS(=O)(=O)C3)n1)C(N)=O` [Example 220, (R)-3-((1-amino-1-oxobutan-2-yl)amino)-5-((2,2-dioxido-1,3-dihydrobenzo[c]thiophen-5-yl)amino)-1,2,4-triazine-6-carboxamide], for which the IC50 fell in the range of 10 to 100 nM.

For `Cc1cc(Nc2nc(N[C@@H]3CCOC[C@@H]3N)nnc2C(N)=O)ccc1Cl` [Example 224, 3-(((3R,4R)-3-aminotetrahydro-2H-pyran-4-yl)amino)-5-((4-chloro-3-methylphenyl)amino)-1,2,4-triazine-6-carboxamide], the half-inhibitory concentration (IC50) was 1 to 10 nM.

As to `Cc1ccc(Nc2nc(N[C@H](CC(C)C)C(N)=O)nnc2C(N)=O)cc1` [Example 121, (R)-3-((1-amino-4-methyl-1-oxopentan-2-yl)amino)-5-(p-tolylamino)-1,2,4-triazine-6-carboxamide], the IC50 lay within 10 to 100 nM.

As to `CC[C@@H](Nc1nnc(C(N)=O)c(Nc2ccc3ncccc3c2)n1)C(N)=O` [Example 51, (R)-3-((1-amino-1-oxobutan-2-yl)amino)-5-(quinolin-6-ylamino)-1,2,4-triazine-6-carboxamide], the half-maximal inhibitory concentration (IC50) was in the range of 1 to 10 nM.

As for `CC[C@@H](Nc1nnc(C(N)=O)c(Nc2cccc(-c3ncccn3)c2)n1)C(N)=O` [Example 84, (R)-3-((1-amino-1-oxobutan-2-yl)amino)-5-((3-(pyrimidin-2-yl)phenyl)amino)-1,2,4-triazine-6-carboxamide], the IC50 was in the range of 100 to 1000 nM.

As for `CC[C@@H](Nc1nnc(C(N)=O)c(Nc2ccc(N3CCOCC3)c(F)c2)n1)C(N)=O` [Example 31, (R)-3-((1-amino-1-oxobutan-2-yl)amino)-5-((3-fluoro-4-morpholinophenyl)amino)-1,2,4-triazine-6-carboxamide], the IC50 was in the range of 10 to 100 nM.

Consider `CC[C@@H](Nc1nnc(C(N)=O)c(Nc2ccc(Cl)c(OC)c2)n1)C(N)=O` [Example 232, (R)-3-((1-amino-1-oxobutan-2-yl)amino)-5-((4-chloro-3-methoxyphenyl)amino)-1,2,4-triazine-6-carboxamide], for which the IC50 is 10 to 100 nM.

With `NC(=O)c1nnc(N[C@@H]2CCOC[C@@H]2N)nc1Nc1ccc2scnc2c1` [Example 247, 3-(((3R,4R)-3-aminotetrahydro-2H-pyran-4-yl)amino)-5-(benzo[d]thiazol-5-ylamino)-1,2,4-triazine-6-carboxamide], the IC50 lay within 10 to 100 nM.

In the case of `Cn1ncc2ccc(Nc3nc(N[C@H](CC(F)F)C(N)=O)nnc3C(N)=O)cc21` [Example 184, (R)-3-((1-amino-4,4-difluoro-1-oxobutan-2-yl)amino)-5-((1-methyl-1H-indazol-6-yl)amino)-1,2,4-triazine-6-carboxamide], the half-maximal inhibitory concentration (IC50) was less than 1 nM.

As for `Cc1cc(Nc2nc(N[C@@H]3CCCC[C@@H]3N)nnc2C(N)=O)ccc1F` [Example 26, 3-(((1R,2S)-2-aminocyclohexyl)amino)-5-((4-fluoro-3-methylphenyl)amino)-1,2,4-triazine-6-carboxamide], the IC50 was in the range of 1 to 10 nM.

Regarding `CC[C@@H](Nc1nnc(C(N)=O)c(Nc2ccc3c(c2)c(C#N)cn3C)n1)C(N)=O` [Example 183, (R)-3-((1-amino-1-oxobutan-2-yl)amino)-5-((3-cyano-1-methyl-1H-indol-5-yl)amino)-1,2,4-triazine-6-carboxamide], the IC50 is less than 1 nM.

Consider `CC[C@@H](Nc1nnc(C(N)=O)c(Nc2ccc3cn(C)nc3c2)n1)C(N)=O` [Example 179, (R)-3-((1-amino-1-oxobutan-2-yl)amino)-5-((2-methyl-2H-indazol-6-yl)amino)-1,2,4-triazine-6-carboxamide], for which the IC50 lay in the range of 1 to 10 nM.

The record behind these values is US9040530B2, “1,2,4-triazine-6-carboxamide kinase inhibitors” (Portola Pharmaceuticals, Inc., priority 2012, dated 2015).
